Data as given in US10954216B2, “BMP-signal-inhibiting compound” (RIKEN, priority 2016, dated 2021).
Where a name gives a salt, the structure may show the parent alone. Read-outs that look alike come from different tables or passages of the source.

What was measured:
[1] = target: human ALK6 (Homo sapiens (Human), UniProt O00238); test: ALK6 enzyme inhibitory effect (33P-ATP kinase assay, Reaction Biology); type: biochemical
Excerpt: (§1) ALK Enzyme Inhibitory Effect
(§2) Evaluation conditions were described in the following web pages. http://www.reactionbiology.corrilwebapps/site/Kinase_Assay_Protocol.aspx http://www.reactionbiology.corrilwebapps/site/KinaseDetail.aspx?page=Kinases&id=1

[2] = tested on: BMP signal in MDA-231-D-BREFluc/Rluc cells; test: BMP signal inhibitory effect (AlphaScreen SureFire SMAD1 p-Ser463/465, BMP-6 stimulation); type: cell-based
Method in brief: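 Read-out was phospho-SMAD1 (Ser463/465) by AlphaScreen SureFire after 30 min BMP-6 stimulation at 37° C. Before stimulation, MDA-231-D-BREFluc/Rluc cells were incubated with test compound at 37° C for 2 h.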

[3] = target: human ALK2 (Homo sapiens (Human), UniProt Q04771); test: ALK2 enzyme inhibitory effect (33P-ATP kinase assay, Reaction Biology); type: biochemical; settings: ALK2, 10 μM ATP, 20 μM casein
Chain of human ALK2 (Q04771 21-509): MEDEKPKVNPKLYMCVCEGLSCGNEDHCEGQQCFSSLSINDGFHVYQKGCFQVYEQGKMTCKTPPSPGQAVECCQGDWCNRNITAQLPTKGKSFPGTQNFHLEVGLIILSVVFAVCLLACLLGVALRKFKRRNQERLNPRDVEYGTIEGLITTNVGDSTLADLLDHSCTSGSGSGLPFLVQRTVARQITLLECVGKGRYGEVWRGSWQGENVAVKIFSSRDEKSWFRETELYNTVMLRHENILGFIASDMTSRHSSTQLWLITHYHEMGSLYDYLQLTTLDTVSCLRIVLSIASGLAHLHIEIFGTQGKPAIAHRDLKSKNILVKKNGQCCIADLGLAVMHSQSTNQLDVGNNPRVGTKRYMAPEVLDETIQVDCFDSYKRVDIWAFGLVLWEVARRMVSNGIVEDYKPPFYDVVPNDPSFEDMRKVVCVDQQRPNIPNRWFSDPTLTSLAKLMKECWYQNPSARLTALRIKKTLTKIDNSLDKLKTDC
Excerpt: as §1, §2

[4] = BMP-6 stimulated MDA-231-D-BREFluc/Rluc cells, phospho-SMAD1 AlphaScreen, read-out: IC50

Chain of human ALK6 (O00238 14-502): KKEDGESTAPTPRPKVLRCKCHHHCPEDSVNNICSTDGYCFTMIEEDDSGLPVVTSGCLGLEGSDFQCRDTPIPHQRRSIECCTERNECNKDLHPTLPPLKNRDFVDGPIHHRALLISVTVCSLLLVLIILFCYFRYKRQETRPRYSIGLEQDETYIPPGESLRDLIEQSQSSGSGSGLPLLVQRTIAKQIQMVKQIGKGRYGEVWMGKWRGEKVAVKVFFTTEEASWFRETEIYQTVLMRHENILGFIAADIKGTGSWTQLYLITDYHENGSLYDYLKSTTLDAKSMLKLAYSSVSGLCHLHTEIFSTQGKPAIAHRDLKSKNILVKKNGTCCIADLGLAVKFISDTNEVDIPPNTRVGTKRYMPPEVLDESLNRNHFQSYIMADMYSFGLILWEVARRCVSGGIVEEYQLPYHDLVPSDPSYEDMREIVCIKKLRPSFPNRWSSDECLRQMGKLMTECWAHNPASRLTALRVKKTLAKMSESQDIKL

SMILES: O=C(c1ccc(Nc2nccc(-c3cn(Cc4ccccc4)nc3-c3cccnc3)n2)cc1)N1CCNCC1 [Example 138, (4-((4-(1-Benzyl-3-(pyridin-3-yl)-1H-pyrazol-4-yl)pyrimidin-2-yl)amino)phenyl) (piperazin-1-yl)methanone]
- inhibition at 0.3 µM ([1]; ALK6, test compound 300 nM, read-out: Inhibition rate at 300 nM): 83.8%
- IC50 [2, 4]: 0.0224 µM

SMILES: CCn1cc(-c2ccc(Nc3nccc(-c4cn(CC)nc4-c4cccnc4)n3)cc2)cn1 [Example 27, N-(4-(1-ethyl-1H-pyrazol-4-yl)phenyl)-4-(1-ethyl-3-(pyridin-3-yl)-1H-pyrazol-4-yl)pyrimidin-2-amine]
- IC50 [2, 4]: 0.0585 µM
- IC50 [3]: 0.0177 µM

SMILES: CCn1cc(-c2ccnc(Nc3ccc(N4CCN(CC5CC5)CC4)cc3)n2)c(-c2cccnc2)n1 [Example 33, N-(4-(4-(Cyclopropylmethyl)piperazin-1-yl)phenyl)-4-(1-ethyl-3-(pyridin-3-yl)-1H-pyrazol-4-yl)pyrimidin-2-amine]
- IC50 [2, 4]: 0.0078 µM
- IC50 [3]: 0.0061 µM

SMILES: CCn1cc(-c2ccnc(Nc3cccc(OC4CCNCC4)c3)n2)c(-c2cccnc2)n1 [Example 165, 4-(1-Ethyl-3-(pyridin-3-yl)-1H-pyrazol-4-yl)-N-(3-(piperidin-4-yloxy)phenyl) pyrimidin-2-amine]
- IC50 [2, 4]: 0.0226 µM
- IC50 [3]: 0.057 µM

SMILES: c1cncc(-c2n[nH]cc2-c2ccnc(Nc3ccc(OCCN4CCOCC4)cc3)n2)c1 [Example 25, N-(4-(2-morpholinoethoxy)phenyl)-4-(3-(pyridin-3-yl)-1H-pyrazol-4-yl)pyrimidin-2-amine]
- inhibition at 0.37 µM ([1]; ALK6, test compound 370 nM (asterisk footnote), read-out: inhibition rate at 370 nM): 47.7%
- IC50 [2, 4]: 0.0485 µM

SMILES: c1cncc(-c2nn(C3COC3)cc2-c2ccnc(Nc3ccc(N4CCN(CC5CC5)CC4)cc3)n2)c1 [Example 103, N-(4-(4-(Cyclopropylmethyl)piperazin-1-yl)phenyl)-4-(1-(oxetan-3-yl)-3-(pyridin-3-yl)-1H-pyrazol-4-yl)pyrimidin-2-amine]
- IC50 [2, 4]: 0.0104 µM

SMILES: CC(C)N1CCN(C(=O)c2ccc(Nc3nccc(-c4cn(Cc5ccc(F)cc5)nc4-c4cccnc4)n3)cc2)CC1 [Example 121, (4-((4-(1-(4-Fluorobenzyl)-3-(pyridin-3-yl)-1H-pyrazol-4-yl)pyrimidin-2-yl)amino)phenyl)(4-isopropylpiperazin-1-yl)methanone]
- IC50 [2, 4]: 0.0196 µM

SMILES: CCn1cc(-c2ccnc(Nc3ccc(N4CCC(N)CC4)cc3)n2)c(-c2cccnc2)n1 [Example 147, N-(4-(4-Aminopiperidin-1-yl)phenyl)-4-(1-ethyl-3-(pyridin-3-yl)-1H-pyrazol-4-yl)pyrimidin-2-amine]
- IC50 [2, 4]: 0.0141 µM

SMILES: CCn1cc(-c2ccnc(Nc3ccc(N4CCN(C5CCOCC5)CC4)cc3)n2)c(-c2cccnc2)n1 [Example 130, 4-(1-Ethyl-3-(pyridin-3-yl)-1H-pyrazol-4-yl)-N-(4-(4-(tetrahydro-2H-pyran-4-yl)piperazin-1-yl)phenyl)pyrimidin-2-amine]
- IC50 [2, 4]: 0.0124 µM

SMILES: CCn1cc(-c2nc(Nc3ccc(N4CCNCC4)cc3)ncc2F)c(-c2cccnc2)n1 [Example 166, 4-(1-Ethyl-3-(pyridin-3-yl)-1H-pyrazol-4-yl)-5-fluoro-N-(4-(piperazin-1-yl)phenyl)pyrimidin-2-amine]
- IC50 [2, 4]: 0.04 µM

SMILES: COCCN1CCC(c2ccc(Nc3nccc(-c4cn(C5COC5)nc4-c4cccnc4)n3)cc2)CC1 [Example 12, N-(4-(1-(2-methoxyethyl)piperidin-4-yl)phenyl)-4-(1-(oxetan-3-yl)-3-(pyridin-3-yl)-1H-pyrazol-4-yl)pyrimidin-2-amine]
- IC50 [2, 4]: 0.0066 µM

SMILES: CCn1cc(-c2ccnc(Nc3ccc(N4CCC[C@@H](N)C4)cc3)n2)c(-c2cccnc2)n1 [Example 161, (R)-N-(4-(3-Aminopiperidin-1-yl)phenyl)-4-(1-ethyl-3-(pyridin-3-yl)-1H-pyrazol-4-yl)pyrimidin-2-amine]
- IC50 [2, 4]: 0.0126 µM

SMILES: CCn1cc(-c2ccnc(Nc3ccc(N4CC5CCC(C4)N5CCOC)cc3)n2)c(-c2cccnc2)n1 [Example 86, 4-(1-Ethyl-3-(pyridin-3-yl)-1H-pyrazol-4-yl)-N-(4-(8-(2-methoxyethyl)-3,8-diazabicyclo[3.2.1]octan-3-yl)phenyl)pyrimidin-2-amine]
- IC50 [2]: 0.0129 µM

SMILES: CCn1cc(-c2ccnc(Nc3ccc4c(c3)CN(CCOC)C4)n2)c(-c2cccnc2)n1 [Example 61, N-(4-(1-ethyl-3-(pyridin-3-yl)-1H-pyrazol-4-yl)pyrimidin-2-yl)-2-(2-methoxyethyl)isoindolin-5-amine]
- IC50 [2, 4]: 0.007 µM

SMILES: N#Cc1ccccc1Cn1cc(-c2ccnc(Nc3ccc(N4CCNCC4)cc3)n2)c(-c2cccnc2)n1 [Example 157, 2-((4-(2-((4-(Piperazin-1-yl)phenyl)amino)pyrimidin-4-yl)-3-(pyridin-3-yl)-1H-pyrazol-1-yl)methyl)benzonitrile]
- IC50 [2, 4]: 0.0197 µM

SMILES: CCn1cc(-c2ccnc(Nc3ccc(-n4ccnc4)cc3)n2)c(-c2cccnc2)n1 [Example 44, N-(4-(1H-Imidazol-1-yl)phenyl)-4-(1-ethyl-3-(pyridin-3-yl)-1H-pyrazol-4-yl)pyrimidin-2-amine]
- IC50 [2, 4]: 0.0145 µM

SMILES: CCn1cc(-c2ccnc(Nc3ccc4c(c3)CN(CC(C)(C)O)CC4)n2)c(-c2cccnc2)n1 [Example 106, 1-(7-((4-(1-Ethyl-3-(pyridin-3-yl)-1H-pyrazol-4-yl)pyrimidin-2-yl)amino)-3,4-dihydroisoquinolin-2(1H)-yl)-2-methylpropan-2-ol]
- IC50 [2, 4]: 0.0035 µM

SMILES: CCn1cc(-c2ccnc(Nc3ccc(N4CCNCC4)c(C)c3)n2)c(-c2cccnc2)n1 [Example 154, 4-(1-Ethyl-3-(pyridin-3-yl)-1H-pyrazol-4-yl)-N-(3-methyl-4-(piperazin-1-yl)phenyl)pyrimidin-2-amine]
- IC50 [2, 4]: 0.007 µM

SMILES: CCn1cc(-c2ccnc(Nc3ccc(C(C)=O)cc3)n2)c(-c2cccnc2)n1 [Example 6, 1-(4-((4-(1-Ethyl-3-(pyridin-3-yl)-1H-pyrazol-4-yl)pyrimidin-2-yl)amino)phenyl) ethan-1-one]
- IC50 [2, 4]: 0.0292 µM

SMILES: CCn1cc(-c2ccnc(Nc3ccc(N4CCN5CCC4CC5)cc3)n2)c(-c2cccnc2)n1 [Example 69, N-(4-(1,4-diazabicyclo[3.2.2]nonan-4-yl)phenyl)-4-(1-ethyl-3-(pyridin-3-yl)-1H-pyrazol-4-yl)pyrimidin-2-amine]
- IC50 [2, 4]: 0.013 µM

SMILES: CCn1cc(-c2ccnc(Nc3ccc4c(c3)CCN(CCOC)CC4)n2)c(-c2cccnc2)n1 [Example 93, N-(4-(1-Ethyl-3-(pyridin-3-yl)-1H-pyrazol-4-yl)pyrimidin-2-yl)-3-(2-methoxyethyl)-2,3,4,5-tetrahydro-1H-benzo [d] azepin-7-amine]
- IC50 [2, 4]: 0.0038 µM

SMILES: CC(C)N1CCN(C(=O)c2ccc(Nc3nccc(-c4cn(CCc5ccccc5)nc4-c4cccnc4)n3)cc2)CC1 [Example 123, (4-lsopropylpiperazin-1-yl) (4-((4-(1-phenethyl-3-(pyridin-3-yl)-1H-pyrazol-4-yl)pyrimidin-2-yl)amino)phenyl) methanone]
- IC50 [2, 4]: 0.0126 µM

SMILES: CN1Cc2ccc(Nc3nccc(-c4cn(CC(C)(C)O)nc4-c4cccnc4)n3)cc2C1 [Example 63, 2-Methyl-1-(4-(2-((2-methylisoindolin-5-yl)amino)pyrimidin-4-yl)-3-(pyridin-3-yl)-1H-pyrazol-1-yl)propan-2-ol]
- IC50 [2, 4]: 0.0039 µM

SMILES: CCn1cc(-c2ccnc(Nc3cnn(C4CCN(CCOC)CC4)c3)n2)c(-c2cccnc2)n1 [Example 55, 4-(1-ethyl-3-(pyridin-3-yl)-1H-pyrazol-4-yl)-N-(1-(1-(2-methoxyethyl)piperidin-4-yl)-1H-pyrazol-4-yl)pyrimidin-2-amine oxalate]
- IC50 [2, 4]: 0.0216 µM
